Assay results: ChEMBL document CHEMBL5338713, “Discovery of pomalidomide-based PROTACs for selective degradation of histone deacetylase 8” (Eur J Med Chem, 2022)
Active and inactive are the calls of the source. The calls are words filed in the database; no cut-off is given here.

Experiments:
Assay type in all cases: cell-based
[1] = biological target: Histone deacetylase 3 (Homo sapiens) (UniProt O15379); assay: Induction of HDAC3 degradation in human HCT-116 cells at 0.1 to 160 uM measured after 10 hrs by Western blot analysis; conditions: dose 0.1-160 µM
[2] = biological target: T1, Histone deacetylase 8 (Homo sapiens) (UniProt Q9BY41); assay: Induction of HDAC8 degradation in human HCT-116 cells assessed as hook effect measured at > 40 uM for 10 hrs by Western blot analysis
T1 sequence (whole entry): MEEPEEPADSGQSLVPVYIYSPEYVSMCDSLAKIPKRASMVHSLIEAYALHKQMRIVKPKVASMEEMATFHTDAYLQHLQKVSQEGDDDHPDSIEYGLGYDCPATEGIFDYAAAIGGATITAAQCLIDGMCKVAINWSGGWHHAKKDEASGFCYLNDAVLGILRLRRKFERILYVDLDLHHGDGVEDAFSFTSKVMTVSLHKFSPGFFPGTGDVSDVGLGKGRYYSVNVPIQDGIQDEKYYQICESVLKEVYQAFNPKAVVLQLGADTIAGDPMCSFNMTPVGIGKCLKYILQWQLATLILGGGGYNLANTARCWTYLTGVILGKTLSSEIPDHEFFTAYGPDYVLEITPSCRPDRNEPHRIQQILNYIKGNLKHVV

[3] = biological target: T1, Histone deacetylase 8 (Homo sapiens); assay: Induction of HDAC8 degradation in human HCT-116 cells at 5 uM measured at 2 hrs by Western blot analysis
[4] = biological target: T2, Protein cereblon/Histone deacetylase 8 (Homo sapiens) (UniProt Q9BY41+Q96SW2); assay: PROTAC activity at HDAC8/CRBN in human HCT-116 cells assessed as degradation of HDAC8 at 5 uM measured after 10 hrs in presence of BRD73954 by Western blot analysis
[5] = biological target: T2, Protein cereblon/Histone deacetylase 8 (Homo sapiens); assay: PROTAC activity at HDAC8/CRBN in human HCT-116 cells assessed as degradation of HDAC8 at 5 uM measured after 10 hrs in presence of E3 ligase inhibitor by Western blot analysis
[6] = biological target: T2, Protein cereblon/Histone deacetylase 8 (Homo sapiens); assay: PROTAC activity at HDAC8/CRBN in human HCT-116 cells assessed as degradation of HDAC8 at 5 uM measured after 10 hrs in presence of bafilomycin Al by Western blot analysis
[7] = biological target: T1, Histone deacetylase 8 (Homo sapiens); assay: Induction of HDAC8 degradation in human HCT-116 cells assessed as increase in SMC3 acetylation level measured after 10 hrs by Western blot analysis; conditions: dose 0.1-160 µM
[8] = biological target: T1, Histone deacetylase 8 (Homo sapiens); assay: Induction of HDAC8 degradation in human HCT-116 cells assessed as maximum degradation at 5 uM measured at 10 hrs by Western blot analysis
[9] = biological target: T1, Histone deacetylase 8 (Homo sapiens); assay: Induction of HDAC8 degradation in human HCT-116 cells at 5 uM by Western blot analysis relative to control
[10] = biological target: T2, Protein cereblon/Histone deacetylase 8 (Homo sapiens); assay: PROTAC activity at HDAC8/CRBN in human HCT-116 cells assessed as degradation of HDAC8 at 5 uM measured after 10 hrs in presence of pomalidomide by Western blot analysis
[11] = biological target: T2, Protein cereblon/Histone deacetylase 8 (Homo sapiens); assay: PROTAC activity at HDAC8/CRBN in human HCT-116 cells assessed as degradation of HDAC8 at 5 uM measured after 10 hrs in presence of MG132 by Western blot analysis
[12] = biological target: T3, Protein deacetylase HDAC6 (Homo sapiens, UniProt Q9UBN7); assay: Induction of HDAC6 degradation in human HCT-116 cells measured after 10 hrs by Western blot analysis
T3 sequence (Q9UBN7 whole entry): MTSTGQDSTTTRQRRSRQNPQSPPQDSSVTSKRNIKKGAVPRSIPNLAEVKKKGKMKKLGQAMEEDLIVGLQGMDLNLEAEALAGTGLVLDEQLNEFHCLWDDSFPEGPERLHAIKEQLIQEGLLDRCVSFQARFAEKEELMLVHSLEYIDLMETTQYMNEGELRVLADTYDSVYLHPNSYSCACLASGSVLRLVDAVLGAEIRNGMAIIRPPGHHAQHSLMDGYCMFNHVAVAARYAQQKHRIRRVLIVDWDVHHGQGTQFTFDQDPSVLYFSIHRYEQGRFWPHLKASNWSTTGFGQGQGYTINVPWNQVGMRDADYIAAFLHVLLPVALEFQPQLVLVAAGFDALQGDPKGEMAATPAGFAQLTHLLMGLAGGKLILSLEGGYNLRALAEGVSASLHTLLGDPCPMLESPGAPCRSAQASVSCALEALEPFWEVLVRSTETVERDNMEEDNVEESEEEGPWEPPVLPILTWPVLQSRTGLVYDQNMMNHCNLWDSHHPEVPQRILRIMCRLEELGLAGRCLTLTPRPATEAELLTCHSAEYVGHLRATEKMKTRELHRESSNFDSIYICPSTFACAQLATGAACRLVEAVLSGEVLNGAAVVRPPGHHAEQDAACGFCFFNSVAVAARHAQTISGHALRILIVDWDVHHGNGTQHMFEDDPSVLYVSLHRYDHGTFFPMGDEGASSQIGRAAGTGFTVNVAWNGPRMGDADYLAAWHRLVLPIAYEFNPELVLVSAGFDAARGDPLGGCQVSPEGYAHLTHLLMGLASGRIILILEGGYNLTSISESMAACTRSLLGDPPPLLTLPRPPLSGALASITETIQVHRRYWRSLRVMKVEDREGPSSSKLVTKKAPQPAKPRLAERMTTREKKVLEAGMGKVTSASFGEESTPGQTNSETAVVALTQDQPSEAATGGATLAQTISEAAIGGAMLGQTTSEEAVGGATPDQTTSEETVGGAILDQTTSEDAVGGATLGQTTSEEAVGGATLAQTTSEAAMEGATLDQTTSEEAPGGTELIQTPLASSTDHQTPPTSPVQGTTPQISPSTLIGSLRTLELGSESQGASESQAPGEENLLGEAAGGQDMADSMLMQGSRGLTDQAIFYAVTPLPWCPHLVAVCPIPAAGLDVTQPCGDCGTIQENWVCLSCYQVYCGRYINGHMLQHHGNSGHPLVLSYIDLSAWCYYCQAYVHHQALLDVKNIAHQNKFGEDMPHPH

[13] = biological target: Histone deacetylase 1 (Homo sapiens) (UniProt Q13547); assay: Induction of HDAC1 degradation in human HCT-116 cells at 0.1 to 160 uM measured after 10 hrs by Western blot analysis; conditions: dose 0.1-160 µM
[14] = biological target: T1, Histone deacetylase 8 (Homo sapiens); assay: Induction of HDAC8 degradation in human HCT-116 cells at 5 uM measured at 24 hrs by Western blot analysis
[15] = biological target: T1, Histone deacetylase 8 (Homo sapiens); assay: Induction of HDAC8 degradation in human HCT-116 cells assessed as maximum degradation at 0.1 to 160 uM measured after 10 hrs by Western blot analysis relative to control; conditions: dose 0.1-160 µM
[16] = biological target: T4, Protein deacetylase HDAC6 (Homo sapiens) (UniProt Q9UBN7); assay: Induction of HDAC6 degradation in human HCT-116 cells assessed as increase in alpha-tubulin acetylation level measured after 10 hrs by Western blot analysis; conditions: dose 0.1-160 µM
T4 sequence (whole entry): T3 sequence (Q9UBN7 whole entry)

T2 sequence (Q96SW2 whole entry, looked up, one chain of several): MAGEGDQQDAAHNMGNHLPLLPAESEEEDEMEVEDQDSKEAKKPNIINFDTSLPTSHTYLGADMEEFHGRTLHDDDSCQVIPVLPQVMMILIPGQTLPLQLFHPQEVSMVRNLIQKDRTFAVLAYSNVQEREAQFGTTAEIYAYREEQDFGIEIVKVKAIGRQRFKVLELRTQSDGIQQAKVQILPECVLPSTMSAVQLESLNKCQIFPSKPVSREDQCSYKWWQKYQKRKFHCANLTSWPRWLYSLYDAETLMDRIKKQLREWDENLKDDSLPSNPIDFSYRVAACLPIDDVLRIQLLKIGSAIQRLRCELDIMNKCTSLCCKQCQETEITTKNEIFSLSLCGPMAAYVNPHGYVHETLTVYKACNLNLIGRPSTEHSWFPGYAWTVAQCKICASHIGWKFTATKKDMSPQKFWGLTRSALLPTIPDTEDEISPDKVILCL
Sequence of Histone deacetylase 1 (Homo sapiens) (Q13547 whole entry): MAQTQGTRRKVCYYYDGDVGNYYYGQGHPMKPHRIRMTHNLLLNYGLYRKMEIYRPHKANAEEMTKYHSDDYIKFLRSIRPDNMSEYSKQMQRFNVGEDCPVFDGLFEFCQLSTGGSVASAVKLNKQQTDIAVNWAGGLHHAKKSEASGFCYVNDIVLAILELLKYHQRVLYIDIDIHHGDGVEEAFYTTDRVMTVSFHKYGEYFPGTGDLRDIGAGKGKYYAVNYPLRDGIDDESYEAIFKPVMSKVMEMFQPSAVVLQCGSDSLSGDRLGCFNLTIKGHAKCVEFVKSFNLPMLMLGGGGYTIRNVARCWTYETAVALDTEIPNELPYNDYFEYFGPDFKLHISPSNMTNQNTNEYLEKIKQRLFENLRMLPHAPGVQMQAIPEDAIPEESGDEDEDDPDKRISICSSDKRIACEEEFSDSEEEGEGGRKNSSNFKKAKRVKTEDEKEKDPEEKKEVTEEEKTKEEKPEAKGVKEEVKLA
Sequence of Histone deacetylase 3 (Homo sapiens) (O15379 whole entry): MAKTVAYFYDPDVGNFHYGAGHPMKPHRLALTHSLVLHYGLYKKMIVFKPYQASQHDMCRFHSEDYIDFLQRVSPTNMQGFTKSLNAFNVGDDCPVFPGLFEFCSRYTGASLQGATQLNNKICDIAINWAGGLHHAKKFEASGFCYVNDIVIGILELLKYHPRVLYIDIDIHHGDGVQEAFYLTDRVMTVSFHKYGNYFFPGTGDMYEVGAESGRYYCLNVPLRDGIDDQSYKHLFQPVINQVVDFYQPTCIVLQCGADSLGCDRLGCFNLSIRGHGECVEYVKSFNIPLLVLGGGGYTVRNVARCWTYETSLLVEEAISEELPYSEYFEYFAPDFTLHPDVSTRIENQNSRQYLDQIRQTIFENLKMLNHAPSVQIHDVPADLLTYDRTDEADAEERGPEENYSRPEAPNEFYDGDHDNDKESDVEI

Activity [1]: inactive | Activity [2]: Active | Activity [3]: Active | Activity [4]: inactive | Activity [5]: inactive | Activity [6]: Active | Activity [7]: Dose-Dependent Effect | Activity [8]: Active | Activity [9]: 85% | Activity [10]: inactive | Activity [11]: inactive | DC50 [12]: 4.95 µM | Activity [13]: inactive | Activity [14]: Active | Emax [15]: 93% | Activity [16]: Dose-Dependent Effect
SMILES: O=C(CCCCOc1ccc(CCNC(=O)c2cccc(C(=O)NO)c2)cc1)NCCCCCCNc1cccc2c1C(=O)N(C1CCC(=O)NC1=O)C2=O (stereo unspecified)
